Measurements reported in US20260274832A1, “COMPOUNDS AND THEIR USE IN TREATING CANCER” (ASTRAZENECA AB, priority 2023, published 2026).

How the values were obtained:
[1] = target: T1, AR (AR-full length) in LNCaP cells (Homo sapiens, UniProt P10275, T878A); test: LNCaP Androgen Receptor Imaging Assay (immunofluorescence of endogenous nuclear AR); assay type: cell-based; details: 24 h incubation; for DC50: concentration giving 50% of maximum degradation of AR per curve fit, single experiment or average of two or more; for Dmax: LNCaP; for Dmax / LNCaP AR Degradation Dmax: maximum degradation observed, normalized as % of positive control (prior art AR PROTAC at 3 μM)
T1 construct: the prostate cancer cell line LNCaP (expressing AR-full length); endogenous in cells; host or cells: LNCaP
Experimental: This cell-based imaging assay uses immuno-fluorescence to measure endogenous nuclear AR staining in the prostate cancer cell line LNCaP (expressing AR-full length). The purpose of the assay is to identify compounds that regulate AR protein level according to the protocol laid out in the steps below.
(§1) All work was performed in a sterile tissue culture hood up to the point of cell fixation. LNCaP cells were cultured at 6-8×10^6 per T175 flask and split every 3-4 days. Medium: RPMI (R7638, VWR Sigma) containing 10% FCS and 1% glutamine. Cells were plated in black wall transparent bottom plates at a density of 12,000 cells (Cedex™ Cell counter, Beckmann & Coulter), 40 μL per well, using a Multidrop (ThermoFisher).
(§2) Cells were dosed with test compound diluted in DMSO using an Echo 555/655™ (Labcyte) and the final concentration of DMSO in the well was 0.3%. A neutral control (DMSO) and a positive AR degrader control at 3 μM (a prior art AR PROTAC) were included. The Echo uses acoustic technology to perform direct microplate-to-microplate transfers of DMSO compound solutions to assay plates. The system can be programmed to transfer volumes as low as 2.5 nL in multiple increments between microplates and in so doing generates a serial dilution of compound in the assay plate which is then back-filled to normalise the DMSO concentration across the dilution range. Compounds were dispensed as a 12 point dose response with indicated concentrations. The plates were incubated at 37° C./5% CO2 for 24 h and then fixed and stained as below. 40 μL of 8% paraformaldehyde solution (v/v) in phosphate buffered saline (PBS) was added on top of the media already in the well using a Multidrop to fix plates giving a final concentration of 4% PFA (v/v) for 20-30 minutes (keep in fume hood to minimise PFA exposure). After 20-30 mins, the plates were washed with 3×PBS using a BioTek washer in a fume hood. A shake out of remaining volume in the well was performed to ensure best removal of remaining PBS. At this plates could be stored in PBS after washing for at least 3 days at 4° C., if so, PBS was removed by the BioTek before continuing with the next step.
(§3) The cells were incubated with a Mouse monoclonal Anti-AR antibody AR441 (DAKO M3562) (1:1000), diluted in modified blocking buffer (PBS+1% BSA+0.1% TritonX); 15 μL/well for 2 h at RT. The plates were then washed with 3×PBS using a BioTek washer. A shake out of remaining volume in the well was performed to ensure best removal of remaining PBS. Cells were then incubated with Goat anti-mouse secondary antibody 488 (Invitrogen A11001) (1:500) and nuclear stain, DRAQ5 (Abcam Ab108410) (1:2000) diluted in modified blocking buffer for 45 mins at room temperature 15 μL/well. Plates are then washed with 3×PBS using a BioTek washer, without final aspiration, and sealed with black plate seals. Plates could be stored after staining for three days at 4° C. before read if required.
(§4) Plates are read using a Cellomics Cellinsight to measure the Androgen Receptor level in each well. The data is exported into Genedata to perform curve fitting analysis. All data are normalized as % of positive control and the BellFit method automatically determines the correct fit method based on the presence of hook effect, choosing the BellFit when there is a hook and HillFit when there is no hook. Down-regulation of AR is expressed as a DC50 value and determined by calculation of the concentration of compound that is required to give 50% of maximum degradation of AR as per the curve fit for that compound. The maximum degradation observed for each compound is expressed as Dmax. The AR degradation data for compounds is shown in the table below and may be a result from a single experiment or an average of two or more experiments.

[2] = target: T2, AR (L702H) in LNCaP cells (Homo sapiens, UniProt P10275, L702H/T878A); test: LNCaP Androgen Receptor L702H Imaging Assay (LNCaP cells engineered by CRISPR/Cas9); assay type: cell-based; details: LNCaP cells with AR L702H mutation, 24 h incubation; for DC50: concentration giving 50% of maximum degradation of AR (L702H) per curve fit; for Dmax: LNCaP
T2 construct: engineered to introduce the mutation L702H into the AR gene using CRISPR/Cas9; endogenous in cells; host or cells: LNCaP cells edited by CRISPR/Cas9 at the AR gene
Experimental: as §1, §2, §3, §4
At this stage, anti-androgen therapy is largely ineffective due to AR amplification, overexpression or point mutation. One of the point mutations observed in patient populations is L702H in the AR Ligand Binding Domain. LNCAP cells have been engineered to introduce the mutation L702H into the AR gene using CRISPR/Cas9. The previously described imaging-based AR assay will monitor nuclear AR (L702H) levels in these cells to identify compounds that regulate AR (L702H). […]

[3] = maximum degradation observed, normalized as % of positive control

T1 sequence (P10275 whole entry T878A): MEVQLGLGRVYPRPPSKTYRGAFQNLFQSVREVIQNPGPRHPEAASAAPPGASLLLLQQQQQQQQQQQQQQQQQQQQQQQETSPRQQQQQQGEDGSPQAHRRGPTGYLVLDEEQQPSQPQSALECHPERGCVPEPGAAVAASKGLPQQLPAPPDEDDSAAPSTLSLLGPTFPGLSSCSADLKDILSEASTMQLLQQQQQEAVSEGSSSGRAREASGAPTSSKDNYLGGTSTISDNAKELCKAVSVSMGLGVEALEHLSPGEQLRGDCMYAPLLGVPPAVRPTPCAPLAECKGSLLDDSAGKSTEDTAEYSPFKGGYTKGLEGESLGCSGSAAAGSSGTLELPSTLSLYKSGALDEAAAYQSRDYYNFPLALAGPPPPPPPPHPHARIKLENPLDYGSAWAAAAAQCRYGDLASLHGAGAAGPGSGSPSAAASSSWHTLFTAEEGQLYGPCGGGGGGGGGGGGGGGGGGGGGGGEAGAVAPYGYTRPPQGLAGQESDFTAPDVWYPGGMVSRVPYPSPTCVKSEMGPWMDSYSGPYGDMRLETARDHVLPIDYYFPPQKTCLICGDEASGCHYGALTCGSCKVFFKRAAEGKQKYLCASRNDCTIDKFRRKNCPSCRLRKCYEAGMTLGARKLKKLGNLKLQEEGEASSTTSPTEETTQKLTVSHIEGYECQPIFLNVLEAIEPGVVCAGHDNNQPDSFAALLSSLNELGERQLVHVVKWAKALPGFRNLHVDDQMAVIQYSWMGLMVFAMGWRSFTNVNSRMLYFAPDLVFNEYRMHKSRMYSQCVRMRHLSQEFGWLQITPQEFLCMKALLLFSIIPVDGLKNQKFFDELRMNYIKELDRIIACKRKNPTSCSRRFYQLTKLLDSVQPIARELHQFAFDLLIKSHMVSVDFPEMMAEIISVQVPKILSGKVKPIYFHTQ
T1 sequence (Q96SW2 whole entry partner): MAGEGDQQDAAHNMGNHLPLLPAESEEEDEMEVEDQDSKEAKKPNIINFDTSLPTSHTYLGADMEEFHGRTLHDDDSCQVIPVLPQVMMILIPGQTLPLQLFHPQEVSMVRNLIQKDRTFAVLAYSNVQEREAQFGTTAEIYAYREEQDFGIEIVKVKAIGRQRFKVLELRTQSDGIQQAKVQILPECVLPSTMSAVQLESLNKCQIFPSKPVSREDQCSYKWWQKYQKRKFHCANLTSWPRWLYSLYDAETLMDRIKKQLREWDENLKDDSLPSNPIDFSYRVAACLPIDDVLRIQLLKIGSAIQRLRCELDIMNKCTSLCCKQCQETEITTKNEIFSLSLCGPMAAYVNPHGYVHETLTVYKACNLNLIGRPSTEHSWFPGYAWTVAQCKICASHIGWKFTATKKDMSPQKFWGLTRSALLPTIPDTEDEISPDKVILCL
T2 sequence (P10275 whole entry L702H/T878A): as the sequence (P10275 whole entry T878A) above, with L702H counted along it
T2 sequence (Q96SW2 whole entry partner): as the sequence (Q96SW2 whole entry partner) above

| DC50 [1] [nM] | Dmax [1] [%] | DC50 [2] [nM] | Dmax [2, 3] [%] | LNCaP AR Degradation Dmax [1] [%] | LNCaP AR (L702H) Degradation Dmax [2, 3] [%] | SMILES |
| --- | --- | --- | --- | --- | --- | --- |
| 9 | 96 | 798 | 78 | – | – | N#Cc1c[nH]c2c(N3CCCC(c4ccc(N5CCC(CN6CCC(n7ccc8c(N9CCC(=O)NC9=O)cccc87)CC6)CC5)cn4)C3)ccc(Cl)c12 (single isomer, unassigned) [Example 65, 4-Chloro-7-[(3R*)-3-{5-[4-({4-[4-(2,4-dioxo-1,3-diazinan-1-yl)-1H-indol-1-yl]piperidin-1-yl}methyl)piperidin-1-yl]pyridin-2-yl}piperidin-1-yl]-1H-indole-3-carbonitrile] |
| 6 | 102 | 38 | 96 | – | – | N#Cc1n[nH]c2c(N3CCC(c4ccc(N5CCC(CN6CCC(n7ccc8c(N9CCC(=O)NC9=O)cccc87)CC6)CC5)cc4)CC3)ccc(F)c12 [Example 147, 7-(4-{4-[4-({4-[4-(2,4-Dioxo-1,3-diazinan-1-yl)-1H-indol-1-yl]piperidin-1-yl}methyl)piperidin-1-yl]phenyl}piperidin-1-yl)-4-fluoro-1H-indazole-3-carbonitrile] |
| 3 | 97 | 4 | 96 | – | – | Cn1c(=O)n(C2CCC(=O)NC2=O)c2cccc(N3CCN(CC4CCN(c5ccc(C(=O)NC6CCN(c7ccc(Cl)c8c(C#N)c[nH]c78)CC6)c(F)c5)CC4)CC3)c21 (stereo not drawn) [Example 157, N-[1-(4-Chloro-3-cyano-1H-indol-7-yl)piperidin-4-yl]-4-[4-({4-[1-(2,6-dioxopiperidin-3-yl)-3-methyl-2-oxo-2,3-dihydro-1H-benzimidazol-4-yl]piperazin-1-yl}methyl)piperidin-1-yl]-2-fluorobenzamide] |
| 24 | – | 2300 | – | 92 | 100 | N#Cc1c[nH]c2c(N3CCOC(c4ccc(N5CCC(CN6CCC(n7ccc8c(N9CCC(=O)NC9=O)cccc87)CC6)CC5)cc4)C3)ccc(Cl)c12 (single isomer, unassigned) [Example 118, 4-Chloro-7-[(2R*)-2-{4-[4-({4-[4-(2,4-dioxo-1,3-diazinan-1-yl)-1H-indol-1-yl]piperidin-1-yl}methyl)piperidin-1-yl]phenyl}morpholin-4-yl]-1H-indole-3-carbonitrile] |
| 21 | 95 | 23 | 105 | – | – | Cc1cc2c(N3CCC(=O)NC3=O)cccc2n1C1CCN(CC2CCN(c3ccc(C4CCN(c5ccc(F)c6c(C#N)c[nH]c56)CC4)cc3)CC2)CC1 [Example 141, 7-(4-{4-[4-({4-[4-(2,4-Dioxo-1,3-diazinan-1-yl)-2-methyl-1H-indol-1-yl]piperidin-1-yl}methyl)piperidin-1-yl]phenyl}piperidin-1-yl)-4-fluoro-1H-indole-3-carbonitrile] |
| 12 | – | 24 | 84 | 77 | – | COc1cc(N2CCN(CC3CCN(c4ccc(C5CCN(c6ccc(Cl)c7c(C#N)c[nH]c67)CC5)cc4)CC3)CC2)cc2c1C(=O)N(C1CCC(=O)NC1=O)C2 (single isomer, unassigned) [Example 16, 4-Chloro-7-[4-(4-{4-[(4-{2-[(3R*)-2,6-dioxopiperidin-3-yl]-7-methoxy-1-oxo-2,3-dihydro-1H-isoindol-5-yl}piperazin-1-yl)methyl]piperidin-1-yl}phenyl)piperidin-1-yl]-1H-indole-3-carbonitrile] |
| 1 | 107 | 1 | 109 | – | – | N#Cc1c[nH]c2c(N3CCC(NC(=O)c4c(F)cc(N5CCC(CN6CCC(n7ccc8c(N9CCC(=O)NC9=O)cccc87)CC6)CC5)cc4F)CC3)ccc(Cl)c12 [Example 175, N-[1-(4-Chloro-3-cyano-1H-indol-7-yl)piperidin-4-yl]-4-[4-({4-[4-(2,4-dioxo-1,3-diazinan-1-yl)-1H-indol-1-yl]piperidin-1-yl}methyl)piperidin-1-yl]-2,6-difluorobenzamide] |
| 20 | 87 | 11 | 95 | – | – | N#Cc1c[nH]c2c(C3CCCN(c4ccc(N5CCC(CN6CCN(c7ccc8c(c7)CN(C7CCC(=O)NC7=O)C8=O)CC6)CC5)cc4)C3)ccc(Cl)c12 (single isomer, unassigned) [Example 93, 4-Chloro-7-[(3R*)-1-{4-[4-({4-[2-(2,6-dioxopiperidin-3-yl)-1-oxo-2,3-dihydro-1H-isoindol-5-yl]piperazin-1-yl}methyl)piperidin-1-yl]phenyl}piperidin-3-yl]-1H-indole-3-carbonitrile] |
| 25 | 106 | 45 | 109 | – | – | N#Cc1c[nH]c2c(N3CCC(c4ccc(N5CC6(CCC(CN7CCC(n8ccc9c(N%10CCC(=O)NC%10=O)cccc98)CC7)CC6)C5)cc4)CC3)ccc(Cl)c12 [Example 142, 4-Chloro-7-(4-{4-[7-({4-[4-(2,4-dioxo-1,3-diazinan-1-yl)-1H-indol-1-yl]piperidin-1-yl}methyl)-2-azaspiro[3.5]nonan-2-yl]phenyl}piperidin-1-yl)-1H-indole-3-carbonitrile] |
| 3 | 96 | 6 | 95 | – | – | N#Cc1c[nH]c2c(N3CCC(c4ccc(OCCCCN5CCN(c6ccc7c(c6)CN(C6CCC(=O)NC6=O)C7=O)CC5)cc4)CC3)ccc(Cl)c12 (stereo not drawn) [Example 45] |

| SMILES | DC50 [1] [nM] | Dmax [1] [%] | DC50 [2] [nM] | Dmax [2, 3] [%] | LNCaP AR Degradation Dmax [1] [%] | LNCaP AR (L702H) Degradation Dmax [2, 3] [%] |
| --- | --- | --- | --- | --- | --- | --- |
| COc1nc(N2CCN(CCCCOc3ccc(C4CCN(c5ccc(Cl)c6c(C#N)c[nH]c56)CC4)cc3)CC2)cc2c1C(=O)N(C1CCC(=O)NC1=O)C2 (stereo not drawn) [Example 32, 4-Chloro-7-{4-[4-(4-{4-[2-(2,6-dioxopiperidin-3-yl)-4-methoxy-3-oxo-2,3-dihydro-1H-pyrrolo[3,4-c]pyridin-6-yl]piperazin-1-yl}butoxy)phenyl]piperidin-1-yl}-1H-indole-3-carbonitrile] | 5 | 99 | 10 | 100 | – | – |
| N#Cc1c[nH]c2c(N3CCC(c4ccc(OCCCCN5CCC(n6ccc7c(N8CCC(=O)NC8=O)cccc76)CC5)cc4)CC3)ccc(F)c12 [Example 33, 7-{4-[4-(4-{4-[4-(2,4-Dioxo-1,3-diazinan-1-yl)-1H-indol-1-yl]piperidin-1-yl}butoxy)phenyl]piperidin-1-yl}-4-fluoro-1H-indole-3-carbonitrile] | 12 | 97 | 33 | 90 | – | – |
